Test results taken from PubChem BioAssay AID200 (DTP/NCI, 2004).
Values joined by “and” are separate entries in the source; they are usually repeats but may differ in a detail not shown here. Equal values may be shown once. Inconclusive results and toxic doses are left out. Where a SMILES comes first, the peptide text is derived from it. [ ]: non-standard residue; d: D form. The star is where a group is joined. Cbz = O=C(OCc1ccccc1)*; Nva = CCC[CH](N)C(=O)O

System: B6C3F1 mice, B16 melanoma ip, median survival T/C
Assay: NCI In Vivo Anticancer Drug Screen. Data for tumor model B16 Melanoma (intraperitoneal) in B6C3F1 mice
Conditions: endpoint: median survival time, schedule: Q01DX009 (ip), higher = longer survival
Method in brief: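 Values are T/C ratios: the measurement in treated animals divided by that in vehicle-treated controls, using survival or tumor size in mice carrying transplantable tumors.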

[1] = dose: 25.0 mg/kg/injection, vehicle: Klucel (hydroxypropylcellulose) (HPC)
[2] = dose: 50.0 mg/kg/injection, vehicle: Klucel (hydroxypropylcellulose) (HPC)
[3] = dose: 100.0 mg/kg/injection, vehicle: Klucel (hydroxypropylcellulose) (HPC)
[4] = dose: 12.5 mg/kg/injection, vehicle: saline
[5] = dose: 25.0 mg/kg/injection, vehicle: saline
[6] = dose: 50.0 mg/kg/injection, vehicle: saline
[7] = dose: 12.5 mg/kg/injection, vehicle: saline with Tween-80
[8] = dose: 25.0 mg/kg/injection, vehicle: saline with Tween-80
[9] = dose: 50.0 mg/kg/injection, vehicle: saline with Tween-80
[10] = dose: 100.0 mg/kg/injection, vehicle: saline with Tween-80
[11] = dose: 200.0 mg/kg/injection, vehicle: saline with Tween-80
[12] = dose: 3.12 mg/kg/injection, vehicle: saline with Tween-80
[13] = dose: 6.25 mg/kg/injection, vehicle: saline with Tween-80
[14] = dose: 200.0 mg/kg/injection, vehicle: Klucel (hydroxypropylcellulose) (HPC)
[15] = dose: 100.0 mg/kg/injection, vehicle: saline
[16] = dose: 200.0 mg/kg/injection, vehicle: saline
[17] = dose: 400.0 mg/kg/injection, vehicle: saline

C[n+]1c(-c2cccc(OCCOCCOc3cccc(-c4c5cc(N)ccc5c5ccc(N)cc5[n+]4C)c3)c2)c2cc(N)ccc2c2ccc(N)cc21
T/C (dose: 0.25 mg/kg/injection, vehicle: distilled water + Tween-80): 99 % of control | T/C (dose: 0.5 mg/kg/injection, vehicle: distilled water + Tween-80): 107 % of control | T/C (dose: 1.0 mg/kg/injection, vehicle: distilled water + Tween-80): 117 % of control

CC(C)(C)OC(=O)NC(CC(=O)OCc1ccccc1)C(=O)ON1C(=O)CCC1=O (stereo not drawn)
T/C [1]: 93 % of control | T/C [2]: 91 % of control | T/C [3]: 95 % of control

CCC1OC(OC)C=CC1=O (stereo not drawn)
T/C [4]: 106 % of control | T/C [5]: 108 % of control | T/C [6]: 104 % of control

Clc1ccc2nnnn2n1
T/C [7]: 95 % of control | T/C [8]: 105 % of control | T/C [9]: 108 % of control and 116 % of control and 123 % of control | T/C [10]: 111 % of control | T/C [11]: 167 % of control

S=C1CCCCN1
T/C (dose: 25.0 mg/kg/injection, vehicle: distilled water + alcohol): 107 % of control | T/C (dose: 50.0 mg/kg/injection, vehicle: distilled water + alcohol): 98 % of control | T/C (dose: 100.0 mg/kg/injection, vehicle: distilled water + alcohol): 107 % of control | T/C (dose: 200.0 mg/kg/injection, vehicle: distilled water + alcohol): 101 % of control

COc1cc2c(cc1O)N=C[C@@H]1CCC(O)N1C2=O (mixture of isomers)
T/C (dose: 0.5 mg/kg/injection, vehicle: saline): 100 % of control | T/C (dose: 1.0 mg/kg/injection, vehicle: saline): 100 % of control and 107 % of control | T/C (dose: 2.0 mg/kg/injection, vehicle: saline): 111 % of control and 106 % of control | T/C (dose: 4.0 mg/kg/injection, vehicle: saline): 110 % of control and 121 % of control | T/C (dose: 8.0 mg/kg/injection, vehicle: saline): 115 % of control

CC(=O)N(C)c1ccc(Nc2cc(C)[nH]c3ccc4ncnc4c23)cc1
T/C (dose: 6.25 mg/kg/injection, vehicle: saline): 122 % of control | T/C [4]: 171 % of control and 178 % of control | T/C [5]: 177 % of control and 198 % of control | T/C [6]: 177 % of control and 184 % of control

CCCCCCCCCCCCCCCCNc1cccc2ccccc12
T/C [7]: 96 % of control | T/C [8]: 95 % of control | T/C [9]: 94 % of control and 97 % of control | T/C [10]: 92 % of control

COC1C(CO)OC(n2cnc3c(=S)nc(N)[nH]c32)C1O (stereo not drawn)
T/C [2]: 116 % of control | T/C [3]: 114 % of control

Nc1nc(-c2cccc(S(=O)(=O)O)c2)c(Br)c(=O)[nH]1
T/C [10]: 118 % of control | T/C [11]: 122 % of control

CC1(C)CC23C4COC(=O)C2CCC1C3CC4=O (stereo not drawn)
T/C (dose: 6.25 mg/kg/injection, vehicle: DMSO): 89 % of control | T/C (dose: 12.5 mg/kg/injection, vehicle: DMSO): 90 % of control | T/C (dose: 25.0 mg/kg/injection, vehicle: DMSO): 97 % of control | T/C (dose: 50.0 mg/kg/injection, vehicle: DMSO): 99 % of control | T/C (dose: 100.0 mg/kg/injection, vehicle: DMSO): 88 % of control | T/C (dose: 200.0 mg/kg/injection, vehicle: DMSO): 96 % of control

O=C1NC(c2ccccc2)N=C2Oc3ccccc3C=C12 (stereo not drawn)
T/C (dose: 1.56 mg/kg/injection, vehicle: saline with Tween-80): 101 % of control | T/C [12]: 103 % of control | T/C (dose: 3.13 mg/kg/injection, vehicle: saline with Tween-80): 97 % of control | T/C [13]: 118 % of control and 124 % of control | T/C [7]: 116 % of control and 122 % of control | T/C [9]: 113 % of control

CNC(=O)ON(C(C)=O)C(=O)NC
T/C [4]: 102 % of control | T/C [5]: 107 % of control | T/C [6]: 102 % of control

CCCC(NC(=O)OCc1ccccc1)C(=O)NC(CCSC)C(N)=O (stereo not drawn) (Cbz-[Nva]-Met-NH2; configuration not given here)
T/C [3]: 104 % of control | T/C [14]: 103 % of control | T/C (dose: 400.0 mg/kg/injection, vehicle: Klucel (hydroxypropylcellulose) (HPC)): 93 % of control

Cc1c2ccncc2c(C)c2c1[nH]c1ccccc12
T/C (dose: 1.25 mg/kg/injection, vehicle: distilled water + Tween-80): 106 % of control | T/C (dose: 1.25 mg/kg/injection, vehicle: water): 105 % of control | T/C (dose: 2.5 mg/kg/injection, vehicle: distilled water + Tween-80): 117 % of control | T/C (dose: 2.5 mg/kg/injection, vehicle: water): 104 % of control | T/C (dose: 5.0 mg/kg/injection, vehicle: water): 117 % of control | T/C (dose: 10.0 mg/kg/injection, vehicle: distilled water + Tween-80): 151 % of control | T/C (dose: 20.0 mg/kg/injection, vehicle: distilled water + Tween-80): 173 % of control

CC(=O)OC1=NC(C)c2c1cc(OC(C)=O)[nH]c2=O (stereo not drawn)
T/C (dose: 6.25 mg/kg/injection, vehicle: Klucel (hydroxypropylcellulose) (HPC)): 116 % of control and 105 % of control | T/C (dose: 12.5 mg/kg/injection, vehicle: Klucel (hydroxypropylcellulose) (HPC)): 110 % of control and 98 % of control | T/C [1]: 113 % of control and 100 % of control | T/C [2]: 90 % of control and 101 % of control | T/C [3]: 88 % of control

COc1ccc(C[C@H](N)C(=O)NC2C(CO)OC(n3cnc4c(N(C)C)ncnc43)C2O)cc1 (stereo partly drawn)
T/C (dose: 5.0 mg/kg/injection, vehicle: saline): 103 % of control and 105 % of control | T/C (dose: 10.0 mg/kg/injection, vehicle: saline): 114 % of control and 106 % of control | T/C (dose: 20.0 mg/kg/injection, vehicle: saline): 112 % of control and 116 % of control | T/C (dose: 40.0 mg/kg/injection, vehicle: saline): 118 % of control and 122 % of control

CN1c2ccc3ccccc3c2Sc2ccc3ccccc3c21
T/C [15]: 100 % of control | T/C [16]: 100 % of control | T/C [17]: 118 % of control

Cc1c2cc(Cl)c3ccccc3c2c[n+]2ccccc12
T/C [12]: 103 % of control | T/C [13]: 108 % of control | T/C [7]: 112 % of control | T/C [8]: 101 % of control | T/C [9]: 108 % of control

NC(Cc1ccc(O)c(Cl)c1)C(=O)O (stereo not drawn)
T/C [15]: 93 % of control | T/C [16]: 98 % of control

O=C(CCl)N1c2ccccc2Oc2cc3ccccc3cc21
T/C [9]: 111 % of control | T/C [10]: 108 % of control | T/C [11]: 97 % of control | T/C [16]: 122 % of control and 95 % of control | T/C (dose: 400.0 mg/kg/injection, vehicle: saline with Tween-80): 92 % of control | T/C [17]: 97 % of control and 100 % of control

O=Cc1ccc([N+](=O)[O-])s1
T/C [12]: 98 % of control | T/C [13]: 105 % of control | T/C [7]: 101 % of control | T/C [8]: 101 % of control | T/C [9]: 88 % of control

CC(C)(C)OC(=O)NC(Cc1ccccc1)C(=O)O (stereo not drawn)
T/C [2]: 104 % of control | T/C [3]: 88 % of control | T/C [14]: 100 % of control

CC(=O)OC1(C)CC(C)C(=O)C(C(O)CC2CC(=O)NC(=O)C2)C1 (stereo not drawn)
T/C (dose: 15.6 micrograms/kg/injection, vehicle: saline): 111 % of control | T/C (dose: 31.3 micrograms/kg/injection, vehicle: saline): 107 % of control | T/C (dose: 62.5 micrograms/kg/injection, vehicle: saline): 104 % of control | T/C (dose: 125.0 micrograms/kg/injection, vehicle: saline): 108 % of control | T/C (dose: 250.0 micrograms/kg/injection, vehicle: saline): 117 % of control
